According to US20210317099A1, “SAFER, POTENT, AND FAST ACTING ANTIMICROBIAL AGENTS” (Purdue Research Foundation, priority 2020, published 2021):
Converted amounts (≈) assume the structure as drawn. Read-outs that look alike come from different tables or passages of the source.

Assays:
Format in all cases: cell-based
[1] = test system: Staphylococcus aureus NRS384 (MRSA USA300); experiment: Initial MIC screening, broth microdilution (CLSI); settings: Staphylococcus aureus NRS384 (MRSA USA300), broth microdilution, visual reading
Summary of the method: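 MRSA USA300 grown 24 h at 37 °C on tryptic soy agar, then adjusted to 5×10^5 CFU/ml in cation-adjusted Mueller-Hinton broth. Compounds serially diluted 64 to 0.5 μg/mL per CLSI broth microdilution; MIC recorded.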

[2] = test system: S. aureus NRS 107; experiment: MIC, Gram-positive panel; settings: Staphylococcus aureus, NRS107; S. aureus NRS 107; read-out: MIC
Experimental: (§1) Next, the spectrum of antibacterial activity of compounds 144, 148, 149, 151, 155, 158, and 187 was examined against a panel of clinically relevant Gram-positive bacterial pathogens including methicillin-resistant Staphylococcus aureus (MRSA), vancomycin-resistant Staphylococcus aureus (VRSA), vancomycin-resistant Enterococcus faecalis and Enterococcus faecium (VRE), and Streptococcus pneumoniae. Bacterial strains were grown aerobically overnight on tryptone soya agar plates at 37° C. Afterwards, a bacterial solution equivalent to 0.5 McFarland standard was prepared and diluted in cation-adjusted Mueller-Hinton broth (CAMHB) (for staphylococci). Enterococci and Streptococci were diluted in tryptone soya broth (TSB) to achieve a bacterial concentration of about 5×10^5 CFU/mL and seeded in 96-well plates. Compounds and control drugs were added in the first row of 96-well plates and serially diluted with media containing bacteria. Plates were then, incubated aerobically at 37° C. for 18-20 hours (except for S. pneumoniae, which was incubated at 37° C. in presence of 5% CO2 for 18-20 hours).

[3] = test system: VRSA 12; experiment: MIC, Gram-positive panel; settings: Staphylococcus aureus; VRSA 12; read-out: MIC
Experimental: as §1

[4] = test system: MRSA NRS 385; experiment: MIC, Gram-positive panel; settings: Staphylococcus aureus; MRSA NRS 385; read-out: MIC
Experimental: as §1

[5] = test system: S. pneumoniae ATCC 51916; experiment: MIC, Gram-positive panel; settings: Streptococcus pneumoniae, ATCC51916; S. pneumoniae ATCC 51916; read-out: MIC
Experimental: as §1

[6] = test system: MRSA NRS 386; experiment: MIC, Gram-positive panel; settings: Staphylococcus aureus; MRSA NRS 386; read-out: MIC
Experimental: as §1

[7] = test system: VRSA 10; experiment: MIC, Gram-positive panel; settings: Staphylococcus aureus; VRSA 10; read-out: MIC
Experimental: as §1

[8] = test system: Enterococcus faecium ATCC 700221 (VRE); experiment: MIC, Gram-positive panel; settings: Enterococcus faecium ATCC 700221 (VRE); read-out: MIC
Experimental: as §1

[9] = test system: Enterococcus faecalis ATCC 51299 (VRE); experiment: MIC, Gram-positive panel; settings: Enterococcus faecalis ATCC 51299 (VRE); read-out: MIC
Experimental: as §1

[10] = test system: MRSA NRS 123; experiment: MIC, Gram-positive panel; settings: Staphylococcus aureus; MRSA NRS 123; read-out: MIC
Experimental: as §1

[11] = test system: Methicillin-resistant S. pneumoniae ATCC 700677; experiment: MIC, Gram-positive panel; settings: Streptococcus pneumoniae, ATCC700677; Methicillin-resistant S. pneumoniae ATCC 700677; read-out: MIC
Experimental: as §1

[12] = test system: Methicillin-resistant S. epidermidis NRS101; experiment: MIC, Gram-positive panel; settings: Staphylococcus epidermidis; Methicillin-resistant S. epidermidis NRS101; read-out: MIC
Experimental: as §1

[13] = test system: S. aureus ATCC 6538; experiment: MIC, Gram-positive panel; settings: Staphylococcus aureus, ATCC6538; S. aureus ATCC 6538; read-out: MIC
Experimental: as §1

[14] = test system: MRSA NRS 119; experiment: MIC, Gram-positive panel; settings: Staphylococcus aureus; MRSA NRS 119; read-out: MIC
Experimental: as §1

[15] = test system: human keratinocytes cell line (HaCaT cells); experiment: In vitro cytotoxicity, MTS assay; settings: 2 h
Experimental: Compounds 144, 148, 149, 151, 155, and 158 were assayed (at concentrations of 16, 32, and 64 μg/mL) against a human keratinocytes cell line (HaCaT cells) to determine their in vitro potential toxic effect. Briefly, cells were cultured in Dulbecco's Modified Eagle Medium (DMEM) supplemented with 10% fetal bovine serum (FBS) and penicillin-streptomycin at 37° C. in presence of 5% CO2. Compounds were added in the first row of the 96-well plate. Control cells received DMSO alone at a concentration equivalent to that in drug-treated wells. The cells were incubated with the compounds (in triplicate) in a 96-well plate at 37° C. in presence of 5% CO2 for two hours. The assay reagent MTS 3-(4,5-dimethylthiazol-2-yl)-5-(3-carboxymethoxyphenyl)-2-(4-sulfophenyl)-2H-tetrazolium) (Promega, Madison, Wis., USA) was subsequently added and the plate was incubated for three to four hours. Absorbance readings (at OD490) were recorded using a kinetic microplate reader (Molecular Devices, Sunnyvale, Calif., USA). The quantity of viable cells after treatment with each compound was expressed as a percentage of the viability to DMSO-treated control cells (average of triplicate wells±standard deviation).
FIG. 2. Analyzing the toxicity of compounds 144, 148, 149, 151, 155 and 158 (tested in triplicates at 16, 32 and 64 μg/mL) against human keratinocytes cells (HaCaT) using the MTS 3-(4,5-dimethylthiazol-2-yl)-5-(3-carboxymethoxyphenyl)-2-(4-sulfophenyl)-2H-tetrazolium) assay. Results are presented as percent viable cells relative to DMSO (negative control to determine a baseline measurement for the cytotoxic impact of each compound). The absorbance values represent an average of three samples analyzed for each compound. Error bars represent standard deviation values. The data were analyzed via a two-way ANOVA with post-hoc Dunnett's test for multiple comparisons. An asterisk (*) denotes statistical significance (P<0.05) between results for compounds and DMSO.

`C=C1C(=O)O[C@H](C2=CC=CCC2)[C@H]1c1cccc2ccccc12` [Compound 187] gave an MIC [1] of 1 µg/mL (≈ 3.31 µM), an MIC ([1]; Staphylococcus aureus, read-out: MIC) of 1 to 2 µg/mL (≈ 3.31 to 6.61 µM) and an MIC [2] of 1 µg/mL (≈ 3.31 µM). For the same molecule, the MIC [3] was 2 µg/mL (≈ 6.61 µM), the MIC [4] was 1 µg/mL (≈ 3.31 µM) and the MIC [5] was 1 µg/mL (≈ 3.31 µM). For the same molecule, the MIC [6] was 1 µg/mL (≈ 3.31 µM), the MIC [7] was 1 µg/mL (≈ 3.31 µM) and the MIC [8] was > 64 µg/mL. The MIC [9] was > 64 µg/mL, the MIC [10] was 2 µg/mL (≈ 6.61 µM) and the MIC [11] was 1 µg/mL (≈ 3.31 µM). The MIC [12] was 0.5 µg/mL (≈ 1.65 µM), the MIC [13] was 1 µg/mL (≈ 3.31 µM) and the MIC [14] was 2 µg/mL (≈ 6.61 µM). The “tolerable concentration as multiple of MIC against MRSA” value [15] was 16 to 32 times.
